Data as given in PMC7450057, “Enhancing intracellular accumulation and target engagement of PROTACs with reversible covalent chemistry” (Nature Communications, 2020).
Values joined by “and” are separate entries in the source; they are usually repeats but may differ in a detail not shown here. Identical values can stand only once.

Legend:
MOLM-14 cells [1] = assay: Quantification of intracellular drug concentration by LC-MS; type: in vitro ADME; conditions: for Intracellular concentration: Concentration of compound, AVE / intracellular amount, AVE / intracellular amount / Intracellular concentration: Concentration of compound: 200 nM; for Intracellular concentration: Concentration of compound, AVE / intracellular amount, AVE: average of 3 replicates; for intracellular amount: initial amount 0.4000 nmol; for Intracellular concentration: Concentration of compound: sample volume 400 µL
Experimental: MOLM-14 cells were seeded at a density of 0.5 × 10^6 per mL in 2 mL medium. […] The samples were immediately centrifuged at 12,000 × g for 15 min at 4 °C, then removing the supernatant. In all, 400 μL of NP-40 lysis buffer was added to the cell pellet and mixed thoroughly. The mixtures were rocked for 1 h at 4 °C and centrifuged at 12,000 × g for 15 min at 4 °C. Then the supernatant was transferred to new EP tubes. In total, 20 µL supernatant was extracted with 180 µL of acetonitrile (containing internal standard: 250 nM of RNC-Ctrl) and centrifuged at the same conditions described above. Take 75 μL of supernatant for liquid chromatography-mass spectrometry analysis.
The mass spectrometer was operated in positive SIM ion mode (fragmentor 120 V; cycle time 0.6 s/cycle; Agilent Technologies 6130 Quadrupole LC/MS).

MOLM-14 cells [2] = assay: Quantitative multiplexed (TMT) proteomics of compound-treated cells; type: cell-based, Homo sapiens; conditions: 200 nM, 24 h
Experimental: For proteomic study of the cellular protein profile following BTK degradation, MOLM-14 cells were treated in duplicate with 200 nM of RC-1, RNC-1, IRC-1, or RC-1-Me for 24 h, and then the cells were collected and processed for proteomics analysis (Sanford Burnham Prebys Medical Discovery Institute, La Jolla, California).
For cell lysis and protein digestion, cells were lysed with vigorous shaking (20 Hz for 10 min at room temperature by Retsch MM301 instrument) in 0.5 mL of lysis buffer (8 M urea, 50 mM ammonium bicarbonate (ABC); plus Benzonase 24U/100 ml), and extracted proteins were centrifuged at 14,000 × g for 10 min to remove cellular debris. Supernatant protein concentration was determined using a bicinchoninic acid (BCA) protein assay. Following quantification, the proteins were digested in solution. First, protein disulfide bonds were reduced with 5 mM tris(2-carboxyethyl)phosphine (TCEP) at 30 °C for 60 min, alkylated (carbamidomethylated) with 15 mM iodoacetamide (IAA) in the dark at room temperature for 30 min. Urea was then diluted to 1 M urea using 50 mM ammonium bicarbonate, and proteins were subjected to overnight digestion with mass spec grade Trypsin/Lys-C mix. Following digestion, samples were acidified with formic acid (FA) and subsequently desalted using Waters Sep-Pak C18. Cartridges were sequentially conditioned with 100% acetonitrile (ACN) and 0.1% FA, samples were then loaded, washed with 0.1% FA, and peptides eluted with 60% ACN, 0.1% FA. Finally, the organic solvent was removed in a SpeedVac concentrator prior to LC-MS/MS analysis.
Prior to TMT labeling, sample peptide amount was quantified using a NanoDrop^TM spectrophotometer (ThermoFisher). Samples were labeled according to the table schematic shown below using our TMT protocol. Briefly, a normalized amount of peptides sample was resuspended in 200 mM HEPES pH 8, and then labeled with one of the TMT10-plex reagents for 1 h at room temperature. TMT labels/channels were as follows:
Reactions were quenched with 5% hydroxylamine solution. The 10 samples were then combined, dried down in a SpeedVac system, resuspended in 0.1% FA, and desalted as described above. After desalting, the organic solvent was removed in a SpeedVac concentrator.
Dried samples were reconstituted in 20 mM ammonium formate pH ~10, and fractionated by high pH reverse phase using a Waters Acquity CSH C18 2.1-µm 1 × 150 mm column mounted on an M-Class Ultra Performance Liquid Chromatography (UPLC) system (Waters corp., Milford, MA). […] A total of 36 fractions were collected and pooled in a non-contiguous manner into 18 total fractions: 1 + 19, 2 + 20, 3 + 21, 4 + 22, 5 + 23, 6 + 24, 7 + 25, 8 + 26, 9 + 27, 10 + 28, 11 + 29, 12 + 30, 13 + 31, 14 + 32, 15 + 33, 16 + 34, 17 + 35, and 18 + 36. Pooled fractions were dried to completeness in a SpeedVac concentrator.
Dried fractions were reconstituted with 2% ACN-0.1% FA and analyzed by LC-MS/MS using a nanoACQUITY system (Waters) coupled to an Orbitrap Fusion Lumos mass spectrometer (Thermo Fisher Scientific). […] The mass spectrometer was operated in positive data-dependent acquisition mode. MS1 spectra were measured in the Orbitrap with a resolution of 60,000 (AGC target: 4e5; maximum injection time: 50 ms; mass range: from 350 to 1500 m/z). The instrument was set to run in top speed mode with 3 s cycles for the survey and the MS/MS scans. After a survey scan, tandem MS was performed in the Ion Routing Multipole HCD-Cell on the most abundant precursors by isolating them in the quadrupole (Isolation window: 0.7 m/z; charge state: +2–7; collision energy: 35%). […] The dynamic exclusion was set to 20 s with a 10-ppm mass tolerance around the precursor and its isotopes.
For data analysis, all mass spectra were analyzed with MaxQuant software version 1.5.5.1. MS/MS spectra were searched against the Homo sapiens Uniprot protein sequence database (version January 2018) and GPM cRAP sequences (commonly known protein contaminants). […]

Intracellular concentration: Concentration of compound, AVE (MOLM-14 cells [1]; 5 min): 0.0812 µM
intracellular amount, AVE (MOLM-14 cells [1]; 5 min): 0.0325 nmol
Intracellular concentration: Concentration of compound (MOLM-14 cells [1]; 5 min, single replicates): 0.0707 µM and 0.0946 µM and 0.0782 µM
Intracellular concentration: Concentration of compound, AVE (MOLM-14 cells [1]; 15 min): 0.0738 µM
intracellular amount, AVE (MOLM-14 cells [1]; 15 min): 0.0295 nmol
Intracellular concentration: Concentration of compound (MOLM-14 cells [1]; 15 min, single replicates): 0.0714 µM and 0.0730 µM and 0.0769 µM
Intracellular concentration: Concentration of compound, AVE (MOLM-14 cells [1]; 30 min): 0.0681 µM
intracellular amount, AVE (MOLM-14 cells [1]; 30 min): 0.0272 nmol
Intracellular concentration: Concentration of compound (MOLM-14 cells [1]; 30 min, single replicates): 0.0636 µM and 0.0688 µM and 0.0717 µM
Intracellular concentration: Concentration of compound, AVE (MOLM-14 cells [1]; 60 min): 0.0458 µM
intracellular amount, AVE (MOLM-14 cells [1]; 60 min): 0.0183 nmol
Intracellular concentration: Concentration of compound (MOLM-14 cells [1]; 60 min, single replicates): 0.0457 µM and 0.0469 µM and 0.0450 µM
Intracellular concentration: Concentration of compound, AVE (MOLM-14 cells [1]; 90 min): 0.0470 µM
intracellular amount, AVE (MOLM-14 cells [1]; 90 min): 0.0188 nmol
Intracellular concentration: Concentration of compound (MOLM-14 cells [1]; 90 min, single replicates): 0.0488 µM and 0.0453 µM and 0.0468 µM
Intracellular concentration: Concentration of compound, AVE (MOLM-14 cells [1]; 120 min): 0.0445 µM
intracellular amount, AVE (MOLM-14 cells [1]; 120 min): 0.0178 nmol
Intracellular concentration: Concentration of compound (MOLM-14 cells [1]; 120 min, single replicates): 0.0414 µM and 0.0423 µM and 0.0498 µM
Intracellular concentration: Concentration of compound, AVE (MOLM-14 cells [1]; 240 min): 0.0399 µM
intracellular amount, AVE (MOLM-14 cells [1]; 240 min): 0.0160 nmol
Intracellular concentration: Concentration of compound (MOLM-14 cells [1]; 240 min, single replicates): 0.0402 µM and 0.0408 µM and 0.0387 µM
Cellular concentration (MOLM-14 cells [1]; 5 min, Mean): 0.0325 nmol/million cells
Cellular concentration (MOLM-14 cells [1]; 15 min, Mean): 0.0295 nmol/million cells
Cellular concentration (MOLM-14 cells [1]; 30 min, Mean): 0.0272 nmol/million cells
Cellular concentration (MOLM-14 cells [1]; 60 min, Mean): 0.0183 nmol/million cells
Cellular concentration (MOLM-14 cells [1]; 90 min, Mean): 0.0188 nmol/million cells
Cellular concentration (MOLM-14 cells [1]; 120 min, Mean): 0.0178 nmol/million cells
Compound: CN(CCCNC(=O)CNc1cccc2c1C(=O)N(C1CCC(=O)NC1=O)C2=O)CCCC(=O)N1CCCC(n2nc(-c3ccc(Oc4ccccc4)cc3)c3c(N)ncnc32)C1 (centres unmarked) [RNC-1]
intracellular amount (MOLM-14 cells [1]; 5 min, single replicates): 0.0283 nmol and 0.0378 nmol and 0.0313 nmol
intracellular amount (MOLM-14 cells [1]; 15 min, single replicates): 0.0286 nmol and 0.0292 nmol and 0.0308 nmol
intracellular amount (MOLM-14 cells [1]; 30 min, single replicates): 0.0255 nmol and 0.0275 nmol and 0.0287 nmol
intracellular amount (MOLM-14 cells [1]; 60 min, single replicates): 0.0183 nmol and 0.0188 nmol and 0.0180 nmol
intracellular amount (MOLM-14 cells [1]; 90 min, single replicates): 0.0195 nmol and 0.0181 nmol and 0.0187 nmol
intracellular amount (MOLM-14 cells [1]; 120 min, single replicates): 0.0166 nmol and 0.0169 nmol and 0.0199 nmol
intracellular amount (MOLM-14 cells [1]; 240 min, single replicates): 0.0161 nmol and 0.0163 nmol and 0.0155 nmol
Cellular concentration (MOLM-14 cells [1]; 5 min, single replicates, MOLM-14, 200 nM): 0.0313 nmol/million cells and 0.0283 nmol/million cells and 0.0378 nmol/million cells
Cellular concentration (MOLM-14 cells [1]; 15 min, single replicates, MOLM-14, 200 nM): 0.0308 nmol/million cells and 0.0286 nmol/million cells and 0.0292 nmol/million cells
Cellular concentration (MOLM-14 cells [1]; 30 min, single replicates, MOLM-14, 200 nM): 0.0287 nmol/million cells and 0.0255 nmol/million cells and 0.0275 nmol/million cells
Cellular concentration (MOLM-14 cells [1]; 60 min, single replicates, MOLM-14, 200 nM): 0.0180 nmol/million cells and 0.018 nmol/million cells and 0.0183 nmol/million cells and 0.0188 nmol/million cells
Cellular concentration (MOLM-14 cells [1]; 90 min, single replicates, MOLM-14, 200 nM): 0.0187 nmol/million cells and 0.0195 nmol/million cells and 0.0181 nmol/million cells
Cellular concentration (MOLM-14 cells [1]; 120 min, single replicates, MOLM-14, 200 nM): 0.0199 nmol/million cells and 0.0166 nmol/million cells and 0.0169 nmol/million cells
Cellular concentration (MOLM-14 cells [1]; 240 min, Mean): 0.0160 nmol/million cells and 0.016 nmol/million cells
Cellular concentration (MOLM-14 cells [1]; 240 min, single replicates, MOLM-14, 200 nM): 0.0155 nmol/million cells and 0.0161 nmol/million cells and 0.0163 nmol/million cells
degradation of IMiD-dependent substrates IKZF1, ZFP91, ZNF692 (MOLM-14 cells [2]): specifically degraded
kinases degraded (proteomics) (MOLM-14 cells [2]): 7
